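Following 48 hours of exposure in 96-well plates, responses at five concentrations were used to interpolate endpoints linearly. The concentration for full growth arrest is given as TGI.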
Legend:
Experiment in all cases: inhibition of tumour cell growth, NCI panel, 48 h
NCI-H23 lung = test system: NCI-H23 lung
TK-10 renal = test system: TK-10 renal
ACHN renal = test system: ACHN renal
PC-3 prostate = test system: PC-3 prostate
SW-620 colon = test system: SW-620 colon
UACC-257 melanoma = test system: UACC-257 melanoma
MCF7 breast = test system: MCF7 breast
IGROV1 ovarian = test system: IGROV1 ovarian
SK-MEL-2 melanoma = test system: SK-MEL-2 melanoma
RXF 393 renal = test system: RXF 393 renal

| Structure (SMILES) | TGI (NCI-H23 lung) [µM] | TGI (TK-10 renal) [µM] | TGI (ACHN renal) [µM] | TGI (PC-3 prostate) [µM] | TGI (SW-620 colon) [µM] | TGI (UACC-257 melanoma) [µM] | TGI (MCF7 breast) [µM] | TGI (IGROV1 ovarian) [µM] | TGI (SK-MEL-2 melanoma) [µM] | TGI (RXF 393 renal) [µM] |
| --- | --- | --- | --- | --- | --- | --- | --- | --- | --- | --- |
| O=c1c(Cc2ccc(Cl)cc2)nnc2sc(-c3ccc(-c4ccc(Cl)cc4Cl)o3)nn12 | > 100 | > 100 | > 100 | > 100 | > 100 | > 100 | > 100 | > 100 | > 100 | > 100 |
| CCc1c(-c2ccc(OC)cc2)oc(OC)c(C)c1=O | > 100 | > 100 | > 100 | > 100 | > 100 | > 100 | > 100 | > 100 | > 100 | > 100 |
| C/C(=C/CC[C@]1(CO)CC[C@]2(C)[C@H](CC[C@@H]3[C@@]4(C)CC[C@H](OC5OC(CO)C(O)C(O)C5OC5OC(CO)C(O)C(O)C5O)C(C)(C)[C@@H]4CC[C@]32C)[C@H]1O)CO (stereo partly specified) | > 100 | > 100 | > 100 | > 100 | > 100 | > 100 | > 100 | > 100 |  | > 100 |
| Cc1cccc(CC(Cc2ccc(C)cc2C(=O)O)C(=O)O)c1 (stereo unspecified) | > 100 | > 100 | > 100 | > 100 | > 100 | > 100 | > 100 | > 100 | > 100 | > 100 |
| Cc1cc2nc3c(C#N)c4c(c(-c5ccc(Cl)cc5)n3c2cc1C)CCC4 | 35.4 | 60.5 | 59.5 | 97.7 | > 100 | 41.4 | > 100 | 36.2 | 36 | > 100 |
| COC(=O)Nc1nc2ccc(S(=O)(=O)N3CCOCC3)cc2[nH]1 | > 100 | > 100 | > 100 | > 100 | > 100 | > 100 | > 100 | > 100 | > 100 | > 100 |
| Cc1ccc2c(c1)nc1n2C(N)=Nc2ccccc2S1 | > 100 | > 100 | > 100 | > 100 | > 100 | > 100 | > 100 | > 100 | > 100 | > 100 |
| OC1(c2ccc(Cl)cc2)c2ccccc2-c2nc3ccccc3n21 (stereo unspecified) | > 100 | > 100 | > 100 | > 100 | > 100 | > 100 | > 100 | > 100 | > 100 | 55 |
| O=C(SCc1cccc2ccccc12)c1ccc(Cl)cc1 | > 100 | > 100 | > 100 | > 100 | > 100 | > 100 | > 100 | > 100 | > 100 | > 100 |
| CC1OC(OC2C(O[C@H]3CC[C@@]4(C)C(=CC[C@H]5[C@@H]6C[C@@H]7O[C@]8(CC[C@@H](C)CO8)[C@@H](C)[C@@H]7[C@@]6(C)CC[C@@H]54)C3)OC(CO)C(O)C2O)C(O)C(O)C1O (stereo partly specified) | 5.61 | 3.57 | 3.44 | 1.63 | 2.31 | 4.9 | 4.12 | 6.08 | 6.21 | 3.04 |
| COC(=O)c1cc(OC)c(OC)c(OC)c1-c1cc2c(cc1C=O)OCO2 | > 10 | > 10 | > 10 | > 10 | > 10 | > 10 | > 10 | > 10 | > 10 | > 10 |
| CC(C)=CC[C@]12CCN(C)[C@H]1N(S(=O)(=O)c1ccccc1)c1ccccc12 | > 100 | > 100 | > 100 | 98.6 | > 100 | > 89.6 | > 72.9 | > 100 | 55.5 | > 71.7 |
| CC(=O)OCC1OC(n2c(Br)nc3c2c(=O)n(C)c(=O)n3C)C(OC(C)=O)C1OC(C)=O (stereo unspecified) | > 100 | > 100 | > 100 | > 100 | > 100 | > 100 | > 100 | > 100 |  | > 100 |
| O=c1[nH]c(=O)n(COCc2ccccc2)cc1Nc1ccc(Br)cc1 | > 100 |  | > 100 | > 100 | > 100 | > 100 | > 100 | > 100 |  | > 100 |
